Entries after “also recorded” stand apart in the source; their conditions may differ. Non-standard residues stand in square brackets, D forms with d. No end group written: not given here.

In assay [1] the test system is type III allergic (Arthus) reaction-induced rats. In words: Immune-complex disease suppression in type III allergic (Arthus) reaction-induced rats, Part 1. Type of assay: in vivo. On the procedure:
Using sixty-four 7-week-old male Slc:Wistar rats, examinations were made on peptides R1, R2, and R5, in two series of examinations, each using a different method of administration (intraperitoneal administration and tail vein administration). Acclimation was carried out by giving normal solid chow CRF-1 for a period of 9 days or longer. The back of the animals was shaved on the day prior to administration, and a mixed solution of OVA and Evans blue dye was administered into the tail vein on the day of administration. Each peptide solution was administered intraperitoneally or into the tail vein 30 minutes or 50 minutes after the administration of the mixed solution of OVA and Evans blue dye, respectively. For intracutaneous administration of an anti-OVA solution, […] was intracutaneously administered in the back of animals at a dose of 0.1 ml/site 30 minutes or 10 minutes after the administration of the tested substance in the case of intraperitoneal or intravenous administration, respectively, so as to generate a local Arthus reaction. After the reaction was allowed to be generated for 4 hours, the animals were euthanized, the blood was removed thoroughly, and then the dorsal skin was exfoliated. The Arthus reaction sites on the exfoliated skin were punched out, and the Evans blue dye was extracted from the punched skin overnight. The amount of dye leakage was quantified by measuring absorbance for the Evans blue dye with a spectrophotometer and using a calibration curve (see, H. Okamoto, Y. Iwahisa, and M. Terasawa, “Suppression of the Arthus reaction by Y-24180, a potent and specific antagonist of platelet-activating factor”, Agents Actions, 35:149-158 (1992), for experimental procedures used in Example 4).
A predetermined amount of each peptide (peptides R1, R2, and R5) was dissolved in physiological saline to make a 20 mg/ml solution. A 2 mg/ml solution was prepared by diluting the 20 mg/ml solution 10-fold with physiological saline. A 5 mg/ml solution was prepared by dissolving each peptide in a predetermined amount in physiological saline to make a prepared solution.
A mixed solution of OVA and Evans blue dye was administered into the tail vein at a dose of 2 ml/kg. Each peptide solution was administered intraperitoneally or into the tail vein 30 minutes or 50 minutes after the administration of the mixed solution of OVA and Evans blue dye, respectively. For intracutaneous administration of an anti-OVA solution, […] was intracutaneously administered in the back of animals at a dose of 0.1 mL/site 30 minutes or 10 minutes after the administration of the tested substance in the case of intraperitoneal or intravenous administration, respectively, so as to generate a local Arthus reaction. Intracutaneous administration was conducted at 2 sites for PBS and at 2 sites for the anti-OVA solution per animal. After the reaction was allowed to be generated for 4 hours, the animals were euthanized by decapitation under ether anesthesia, the blood was removed thoroughly, and then the dorsal skin was exfoliated. The Arthus reaction sites on the exfoliated skin were punched out and subjected to dye extraction.
Several cuttings were made in the skin strips that were punched out with a punch. […] The amount of dye leakage was calculated from a calibration curve of known amounts of the dye.
The mean value (mean)±standard deviation (SD) for each group was calculated with body-weight measurements and amounts of dye leakage. […]

The subject of assay [2] is Monoclonal antibody cocktail-induced arthritis mice. In words: Arthritis suppressing effects on arthritis-induced mice, Part 2. Type of assay: in vivo. The conditions noted are these: 10 mg/kg intraperitoneal twice a day, 14 consecutive days from day 0. On the procedure: Monoclonal antibody cocktail-induced arthritis mice were used to examine arthritis suppressing effects of peptides which are indicated as R1, R2, and R5 in Example 2. Arthritis was caused by intravenous administration of 2 mg/mouse of an arthritis-inducing monoclonal antibody cocktail and three days later, intraperitoneal administration of 50 μg/mouse of LPS. The peptides were administered at a dose of 10 mg/kg twice a day for a period of 14 consecutive days from the day of administration of the arthritis-inducing monoclonal antibody cocktail (day 0), and arthritis suppressing effect was examined in terms of clinical score. Experiments were carried out in a similar way to those in the section (1) in Example 3.
The required amount was calculated for each peptide, based on the animal weight. Each peptide solution was prepared to make a concentration of 1 mg/ml in a 0.5% methyl cellulose solution, and the prepared peptide solution was cold stored.
Measurement of body weight of animals was made on days 0, 3, 6, 9, 12, and 14 during the study period, with day 0 being the day of administration of the arthritis-inducing monoclonal antibody cocktail. Observation of general condition was made on a daily basis.
Mice were weighed on the day prior to start of administration and randomly assigned to groups using a grouping software, so that the average body weight values of the groups were approximately equal. To twenty 7-week-old mice, the arthritis-inducing monoclonal antibody cocktail was intravenously administered at a dose of 2 mg/mouse on day 0, and LPS was intraperitoneally administered at a dose of 50 μg/mouse on day 3.
Each peptide solution was given via intraperitoneal administration twice a day, morning and afternoon, from day 0. As a control, a 0.5% solution of methyl cellulose was intraperitoneally administered twice a day from day 0. A needle (26G; Terumo) and a syringe (1.0-ml capacity; Terumo) were used for administration. […]
Results of examinations were expressed by mean value±standard error and analyzed using EXSAS (Version 7.1.6, Arm Systex Co., Ltd.). […]

For assay [3], the system named is Cy3-labeled goat anti-mouse immunoglobulin (IgG). In words: Peptide array of C1q subunit 15-mers probed with Cy3-labeled immunoglobulin. The conditions noted are these: peptide spots on glass array, 4° C., 12 hours, background fluorescence intensity is 2.6. Type of assay: binding. From the text:
The amino acid sequences of the A, B, and C subunit chains of human C1q, are shown in SEQ ID NOs: 17 to 19, and the nucleotide sequences in SEQ ID NOs: 20 to 22. Based on each of the amino acid sequences, sequences having 15 amino acids (residues) from each subunit and shifted at intervals of three amino acids, were synthesized on a glass array as synthetic peptides (Peptide Nos. 1 to […], and 193 to 270 for the A, B, and C chains, respectively). The synthesis of each peptide was carried out at a specific location on the array, so as to prepare a peptide array which included the synthetic peptides covering the entire amino acid sequences of the subunits of C1q. The preparation of the array was outsourced to JPT Peptide Technologies GmbH.
To the peptide array was applied 330 μl of an Cy3-labeled goat anti-mouse immunoglobulin (IgG) (1 mg/ml; Zymed Laboratories) diluted 1000-fold with PBS (10 mM phosphate buffer, pH 7.0, 0.1 M NaCl), and the array was sealed and then incubated at 4° C. for 12 hours. After that, the array was washed once with methanol and then 5 times with Milli-Q water for 5 minutes each. The array slide was centrifuged and dried, and scanned with a fluorescence scanner (Agilent DNA microarray scanner; Agilent Technologies), so that fluorescence intensity was quantified at the respective peptide spots on the array using a software (Feature Extraction software; Agilent Technologies). Several spots displaying strong fluorescence intensities were detected. […] Note that in the description, the amino acids are denoted by the one-letter code known in the art.

Assay [4] relates to Monoclonal antibody cocktail-induced arthritis mice. In words: Arthritis suppressing effects on arthritis-induced mice, Part 4. It counts as in vivo. To be noted: intraperitoneal 100 mg/kg once a day from day 4; methotrexate 0.1 mg/kg. On the procedure: Monoclonal antibody cocktail-induced arthritis mice were used to examine arthritis suppressing effects of peptides which are indicated as R13 in the section (3) in Example 2 and as R19 and R21 in the section (4) in Example 2. Arthritis was caused by intravenous administration of 2 mg/mouse of an arthritis-inducing monoclonal antibody cocktail and three days later, intraperitoneal administration of 50 μg/mouse of LPS. The peptides […] days from four days after the administration of the arthritis-inducing monoclonal antibody cocktail, and arthritis suppressing effect was examined in terms of clinical score and hind-limb volume determination.
The required amount was calculated for each peptide, based on the animal weight. […]
Measurement of body weight of animals was made on days 0, 3, 6, 9, 12, and 14 during the study period, with day 0 being the day of administration of the arthritis-inducing monoclonal antibody cocktail. Observation of general condition was made on a daily basis. […]
Results of examinations were expressed by mean value±standard error and analyzed using EXSAS (Version 7.1.6, Arm Systex Co., Ltd.). […] Quantitative data, such as body weights and leg volumes, were subjected to Bartlett's test, followed by Dunnett's multiple comparison test when the variance was uniform or Steel's multiple comparison test when the variance was not uniform.

Assay [5] addresses Cy3-labeled goat anti-mouse immunoglobulin (IgG) (goat). In words: peptide array on glass, Cy3-labelled goat anti-mouse IgG, fluorescence scanner; background 2.6.
Setting [6] is: intraperitoneal administration, 10 or 100 mg/kg.
Setting [7] is: tail vein administration, 10 mg/kg.

Take “CKVPGLYYF (Immunoglobulin binding peptide) [R2]”: the “effect of immune-complex disease suppression (dye leakage)” value in assay [1] (setting [6]) is “clear and satisfactory effects of immune-complex disease suppression; also recorded: suppressed”; in assay [1] (setting [7]) it was “clear and satisfactory effects of immune-complex disease suppression; also recorded: suppressed”. The “arthritis suppressing effect (clinical score)” value in assay [2] was “Arthritis suppressing effects were observed; also recorded: arthritis was suppressed”.
On to “CKVPGLYYFVYHASH (Immunoglobulin binding peptide) [R6]”, for which, in assay [3], the Fluorescence intensity is recorded as 65,313.
For the molecule “FTCKVPGLYYFTYHA (Immunoglobulin binding peptide) [R4]”, the Fluorescence intensity in assay [3] is recorded as 65,311.
Same read-out and setting: as for “KFTCKVPGLYYFVYH (Immunoglobulin binding peptide) [compound 245]”, the figure is 65,311.
Regarding “PGLYYF (Immunoglobulin binding peptide) [R1]”, the “effect of immune-complex disease suppression (dye leakage)” value was “clear and satisfactory effects of immune-complex disease suppression; also recorded: suppressed” in assay [1] (setting [6]); “clear and satisfactory effects of immune-complex disease suppression; also recorded: suppressed” in assay [1] (setting [7]). Further, the “arthritis suppressing effect (clinical score)” value in assay [2] is “Arthritis suppressing effects were observed; also recorded: arthritis was suppressed”.
Turning to “SGKFTCKVPGLYYFT (Immunoglobulin binding peptide) [R3]”, in assay [3], the Fluorescence intensity was 65,300.
Regarding “dSdTGdKdFdTdSdKdVdPGdLdYdYdF ([dS][dT]G[dK][dF][dT][dS][dK][dV][dP]G[dL][dY][dY][dF]) [R21]”, in assay [4], the “arthritis-suppressing effect (clinical score) compared with methotrexate” value was “arthritis-suppressing effect comparable to or greater than that of methotrexate”.
In the case of KFTCKVPGLYYFVYH [Peptide No. 245 (…)], in assay [5], the Fluorescence intensity was determined as 65300.
With STGKFTCKVPGLYYF [peptide R5 (…)], in assay [5], the Fluorescence intensity is 65300.
Same read-out and setting: the result for SGKFTCKVPGLYYFT [peptide R3 (…)] reads 65300; that for FTCKVPGLYYFTYHA [peptide R4 (…)], 65300.
As for CKVPGLYYFVYHASH [peptide R6 (…)], the Fluorescence intensity in assay [5] amounted to 65300.

For the origin of these results see patent US20110306554A1, “PEPTIDE CAPABLE OF BINDING TO IMMUNOGLOBULIN” (priority 2009, published 2011).
